Source: PubChem BioAssay (NCI)
Values joined by “and” are separate entries in the source; they are usually repeats but may differ in a detail not shown here. Equal values may be shown once.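 The compound was tested at five concentrations on cells cultured in 96-well plates, with a 48-hour exposure period. At the GI50, growth is halved. TGI marks complete inhibition of growth.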

Key:
Assay in all cases: NCI tumour cell line growth inhibition, 48 h
[1] = tested on: COLO 205 colon
[2] = tested on: HL-60(TB) leukemia
[3] = tested on: HS 578T breast
[4] = tested on: K-562 leukemia
[5] = tested on: KM12 colon
[6] = tested on: MCF7 breast
[7] = tested on: NCI-H460 lung
[8] = tested on: NCI-H522 lung
[9] = tested on: SW-620 colon
[10] = tested on: T-47D breast
[11] = tested on: UACC-257 melanoma

Row | SMILES | TGI [1] | TGI [2] [µM] | TGI [3] | TGI [4] | TGI [5] | TGI [6] | TGI [7] | TGI [8] [µM] | TGI [9] | TGI [10] | TGI [11] | GI50 [1] [µM] | GI50 [3] [µM] | GI50 [4] [µM] | GI50 [5] [µM] | GI50 [6] [µM] | GI50 [7] [µM] | GI50 [9] [µM] | GI50 [10] [µM] | GI50 [11] [µM]
1 | O=C1c2ccccc2C(=O)c2c1oc1cc(O)c(Cl)cc21 | 3.27 µM | 32.9 | 15.5 µM | 43.9 µM | 19.4 µM | 25.2 µM | 9.89 µM | 26.9 | 24.9 µM | 48.6 µM | 7.78 µM |  |  |  |  |  |  |  |  | 
2 | CCCCCN1C(=O)C(Cc2ccccc2)N=C(c2ccc(O)cc2)c2cc(Cl)ccc21 (stereo unspecified) | 10.1 µM | > 100 | 32.4 µM | 12.3 µM | 30.3 µM | 24.8 µM | 24.3 µM | 17.2 | 26.8 µM | 12.4 µM | 23.7 µM |  |  |  |  |  |  |  |  | 
3 | COc1ccc(C[C@H]2COC(=O)[C@@H]2Cc2ccc(Br)cc2)cc1OC | 39.5 µM | > 61.6 | > 90.9 µM | > 72 µM | > 75.2 µM | > 65.4 µM | > 100 µM | > 71.1 | > 100 µM | > 100 µM | 74.6 µM |  |  |  |  |  |  |  |  | 
4 | C=CC(C)(C)NC(C(=O)N1CCC[C@H]1c1nc(-c2nc(C(=O)OCC=C(C)C)c(C)o2)c(C)o1)C(C)C (stereo partly specified) | > 100 µM | 71.6 | > 100 µM | > 100 µM | > 90.6 µM | > 82.8 µM | > 100 µM | > 100 | > 100 µM | > 100 µM | > 100 µM |  |  |  |  |  |  |  |  | 
5 | CO[P@@]1(=O)O[C@@H](c2ccccc2)[C@H](O)[C@@]1(O)c1ccccc1 | > 100 µM | > 100 | > 100 µM | > 100 µM | > 100 µM | > 100 µM | > 100 µM | > 100 | > 100 µM | > 100 µM | > 100 µM |  |  |  |  |  |  |  |  | 
6 | Nc1ccc(Oc2ccc(C34CC5C6CC7(c8ccc(Oc9ccc(N)cc9)cc8)CC5C(C3)C(C7)C6C4)cc2)cc1 | > 100 µM | > 100 | > 100 µM | > 100 µM | > 100 µM | > 100 µM | > 100 µM | > 100 | > 100 µM | > 100 µM | > 100 µM |  |  |  |  |  |  |  |  | 
7 | COc1cccc(CCn2c(N)c(-c3cc(Cl)cc(Cl)c3)c3ccc([N+](=O)[O-])cc3c2=O)c1 | 4.05 µM | 5.37 | > 38 µM | 4.28 µM | > 100 µM | 89.2 µM | > 30.8 µM | > 26.6 | > 100 µM | > 24.8 µM | 24.4 µM |  |  |  |  |  |  |  |  | 
8 | COc1ccc(/C(C)=C2\CCCN(Cc3ccccc3)C2)cc1 | 32.5 µM | 47.5 | 29.2 µM | 63.4 µM | 33.3 µM | 37.8 µM | 53.5 µM | 26.4 | 36.1 µM | 77 µM | 86.4 µM |  |  |  |  |  |  |  |  | 
9 | c1ccc2c(c1)CCN1CCc3ccccc3C1C2 (stereo unspecified) | > 100 µM | > 100 | > 100 µM | > 100 µM | > 100 µM | > 100 µM | > 100 µM | > 100 | > 100 µM | > 100 µM | > 100 µM |  |  |  |  |  |  |  |  | 
10 | Nc1c(F)c(F)c2c(c1F)N(CCCCCl)c1ccccc1S2 | > 100 µM | > 100 | > 100 µM | > 100 µM | > 100 µM | > 100 µM | > 100 µM | > 100 | > 100 µM | > 100 µM | > 100 µM |  |  |  |  |  |  |  |  | 
11 | CC(CC(=O)N1C2CC3CCC2(CS1(=O)=O)C3(C)C)[Si](C)(C)C (stereo unspecified) | > 100 µM | > 100 | > 100 µM | > 100 µM | > 100 µM | > 100 µM | > 100 µM | > 100 | > 100 µM | > 100 µM | > 100 µM |  |  |  |  |  |  |  |  | 
12 | O=S(=O)(O)c1c(Cl)c(Cl)c(O)c2ncccc12 | 31.8 µM | 4.75 | 54.4 µM | > 48.5 µM | 33.2 µM | 21.6 µM | 25.5 µM | 21.4 | > 72.4 µM | 22 µM | 97.6 µM |  |  |  |  |  |  |  |  | 
13 | C1CSCCSCCSCCSCCS1 | > 100 µM | > 100 | > 100 µM | > 100 µM | > 100 µM | > 100 µM | > 100 µM | > 100 | > 100 µM | > 100 µM | > 100 µM |  |  |  |  |  |  |  |  | 
14 | CN1N=C(c2ccncc2)OC1c1cccc(F)c1 (stereo unspecified) | > 100 µM | > 100 | > 100 µM | > 100 µM | > 100 µM | > 100 µM | > 100 µM | > 100 | > 100 µM | > 100 µM | > 100 µM |  |  |  |  |  |  |  |  | 
15 | COC(=O)CN1Cc2cc(C)cc(c2O)CN(CC(=O)OC)Cc2cc(C)cc(c2O)CN(CC(=O)OC)Cc2cc(C)cc(c2O)CN(CC(=O)OC)Cc2cc(C)cc(c2O)C1 | 50 µM and > 100 µM | 16 | 50 µM and > 100 µM | 50 µM and > 100 µM | 50 µM and > 100 µM | 50 µM and > 100 µM | 50 µM and > 100 µM | > 100 | 50 µM and > 100 µM | 50 µM and > 100 µM | 50 µM and > 100 µM | 28.6 | > 100 | 61.2 | 50.2 | 39.9 | 21.7 | 18 | 36.4 | 50.4
16 | CC(C)N(C(C)C)S(=O)(=O)CC12CCC(C/C1=N\O)C2 (stereo unspecified) | > 100 µM | > 100 | > 100 µM | > 100 µM | > 100 µM | > 100 µM | > 100 µM | > 100 | > 100 µM | > 100 µM | > 100 µM |  |  |  |  |  |  |  |  | 
17 | OC1C2CCCCN2C[C@@H](O)[C@H]1O (stereo partly specified) | > 100 µM | > 100 | > 100 µM | > 100 µM | > 100 µM | > 100 µM | > 100 µM | > 100 | > 100 µM | > 100 µM | > 100 µM |  |  |  |  |  |  |  |  | 
